Assay results: article PMC6222606, “Biodegradation of 7-Hydroxycoumarin in Pseudomonas mandelii 7HK4 via ipso-Hydroxylation of 3-(2,4-Dihydroxyphenyl)-propionic Acid” (Molecules : A Journal of Synthetic Chemistry and Natural …, 2018)

Molecular target: T1, HcdB (Pseudomonas mandelii, UniProt A0A385IUB9)
T1 sequence (A0A385IUB9 1-186): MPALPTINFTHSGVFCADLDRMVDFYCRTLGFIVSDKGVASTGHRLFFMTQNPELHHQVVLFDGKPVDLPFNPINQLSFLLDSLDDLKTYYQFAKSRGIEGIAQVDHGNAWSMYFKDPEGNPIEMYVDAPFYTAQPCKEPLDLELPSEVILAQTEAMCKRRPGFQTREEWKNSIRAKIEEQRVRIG
Experiment: whole-cell bioconversion, UV-VIS of yellow meta-cleavage product; cells without hcdB inactive
Type: cell-based
Conditions: […] potassium phosphate pH […] °C, […] substrate

Oc1ccccc1O [pyrocatechol] was tested, and the “whole-cell bioconversion, UV-VIS of yellow meta-cleavage product; cells without” value was “HcdB is capable oxidizing pyrocatechol, 3-methylcatechol, 3-methoxycatechol, 4-methylcatechol”.
